Counter-ions that a name gives are not always drawn. Like-named read-outs stand apart in the source and are kept apart here.
Experiments:
Type in all cases: cell-based
[1] = test system: E. coli clinical isolate (strain 1); test: MIC by broth microdilution (alone and in combination with meropenam), strain 1; conditions: Escherichia coli, compound alone
Experimental: (§1) Compounds of the present invention alone, meropenam (MER) alone, and as a combination with test antibiotic (meropenam) were tested for antimicrobial activity by determing minimum inhibitory concentration (MIC, mg/L) using the broth microdilution method according to the guidelines of the Clinical Laboratories and Stansards Insitute (“Methods for Dilution Antimicrobial Suscetibility Tests for Bacterial that Grow Aerobiclly”, Approved standard, […]., Clinical and Laboratories Stanards Institute (CLSI) Document M7-A8, Wayne, Pa., USA, 2009). Meropenam as a test antibiotic compound was dissolved in DMSO. Meropenam was then diluted in microbial growth medium (Mueller-Hinton Broth II, cation adjusted) resulting in a final concention range of 0.125-64 mg/L in serial two-fold dilution. In all cases the filnal DMSO concentraion was less than 0.5%. Bacteria were added to 96-well microtitre plates containing the serial two-fold dilutions of the compoumds; the final cell density was appoximately 5x10^5 colony forming units/mL (CFU/mL). Plates were incubated at 37° C. for 18-24 hours and read visually. The MIC, i.e. the lowest concentration of the test compound that inhibited visible growth of the bacteria, was recorded. The same assay conditions were used when the compounds of present invention alone, and as a combination with test meropenam antibiotic compound was tested for minmum inhibitory concentration (MIC, mg/L). Whileest meropenam was serially diluted as descrribed above, a constant concentration of the present invention of 4 µg/mL was used.
(§2) Bacterial strains that were used to evaluate the antimicrobial activity using the MIC determination included but were not limited to E. coli clinical isolate (strain 1), E. coli 8739 (strain 2), K. pneumoniae clinical isolate (strain 3), K. pneumoniae 700603 (strain 4), E. cloacae clinical isolate (strain 5), E. cloacae 700323 (strain 6), A. baumannii clinical isolate (strain 7), A. baumannii 19606 (strain 8), P. aeruginosa clinical isolate (strain 9), P. aeruginosa 9027 (strain 10).

E. coli 8739 (strain 2) = test: MIC by broth microdilution (alone and in combination with meropenam), strain 2; conditions: Escherichia coli, compound alone
Experimental: as §1, §2

[2] = test system: K. pneumoniae clinical isolate (strain 3); test: MIC by broth microdilution (alone and in combination with meropenam), strain 3; conditions: Klebsiella pneumoniae, compound alone
Experimental: as §1, §2

[3] = test system: K. pneumoniae 700603 (strain 4); test: MIC by broth microdilution (alone and in combination with meropenam), strain 4; conditions: Klebsiella pneumoniae, compound alone
Experimental: as §1, §2

[4] = test system: E. cloacae clinical isolate (strain 5); test: MIC by broth microdilution (alone and in combination with meropenam), strain 5; conditions: Enterobacter cloacae, compound alone
Experimental: as §1, §2

[5] = test system: E. cloacae 700323 (strain 6); test: MIC by broth microdilution (alone and in combination with meropenam), strain 6; conditions: Enterobacter cloacae, compound alone
Experimental: as §1, §2

[6] = test system: A. baumannii clinical isolate (strain 7); test: MIC by broth microdilution (alone and in combination with meropenam), strain 7; conditions: Acinetobacter baumannii, compound alone
Experimental: as §1, §2

[7] = test system: A. baumannii 19606 (strain 8); test: MIC by broth microdilution (alone and in combination with meropenam), strain 8; conditions: Acinetobacter baumannii, compound alone
Experimental: as §1, §2

[8] = test system: P. aeruginosa clinical isolate (strain 9); test: MIC by broth microdilution (alone and in combination with meropenam), strain 9; conditions: Pseudomonas aeruginosa, compound alone
Experimental: as §1, §2

[9] = test system: P. aeruginosa 9027 (strain 10); test: MIC by broth microdilution (alone and in combination with meropenam), strain 10; conditions: Pseudomonas aeruginosa, compound alone
Experimental: as §1, §2

[10] = read-out: MIC, antibacterial activity of example alone

Measured: MIC

N=C(N)NOCCC(=O)NC(=N)[C@@H]1CC[C@@H]2CN1C(=O)N2OS(=O)(=O)O [Ex.43, (2S,5R)-2-(N-(3-(guanidinooxy)propanoyl)carbamimidoyl)-7-oxo-1,6-diazabicyclo[3.2.1]octan-6-yl Hydrogen Sulfate]
> 64 µg/mL: [1]; [10] | E. coli 8739 (strain 2); [10] | [2]; [10] | [3]; [10] | [4]; [10] | [5]; [10] | [6]; [10] | [7]; [10] | [8]; [10] | [9]; [10]

N=C(NC(=O)c1cccnc1)[C@@H]1CC[C@@H]2CN1C(=O)N2OS(=O)(=O)O [Ex.5, (2S,5R)-2-(N-nicotinoylcarbamimidoyl)-7-oxo-1,6-diazabicyclo[3.2.1]octan-6-yl Hydrogen Sulfate]
> 64 µg/mL: [1]; [10] | E. coli 8739 (strain 2); [10] | [2]; [10] | [3]; [10] | [4]; [10] | [5]; [10] | [6]; [10] | [7]; [10] | [8]; [10] | [9]; [10]

N=C(NC(=O)CCN)[C@@H]1CC[C@@H]2CN1C(=O)N2OS(=O)(=O)[O-].[Na+] [Ex.11, Sodium (2S,5R)-2-(N-(3-aminopropanoyl)carbamimidoyl)-7-oxo-1,6-diazabicyclo[3.2.1]octan-6-yl Sulfate]
> 64 µg/mL: [1]; [10] | E. coli 8739 (strain 2); [10] | [2]; [10] | [3]; [10] | [4]; [10] | [5]; [10] | [6]; [10] | [7]; [10] | [8]; [10] | [9]; [10]

N=C(NC(=O)C1CCCN=N1)[C@@H]1CC[C@@H]2CN1C(=O)N2OS(=O)(=O)[O-].[Na+] (stereo partly drawn) [Ex.52, Sodium (2S,5R)-7-oxo-2-(N-(3,4,5,6-tetrahydropyridazine-3-carbonyl)carbamimidoyl)-1,6-diazabicyclo[3.2.1]octan-6-yl Sulfate]
> 64 µg/mL: [1]; read-out: MIC | E. coli 8739 (strain 2); read-out: MIC | [2]; read-out: MIC | [3]; read-out: MIC | [4]; read-out: MIC | [5]; read-out: MIC | [6]; read-out: MIC | [7]; read-out: MIC | [8]; read-out: MIC | [9]; read-out: MIC

N=C(NC(=O)Cn1ccnc1)[C@@H]1CC[C@@H]2CN1C(=O)N2OS(=O)(=O)[O-].[Na+] [Ex.39, Sodium (2S,5R)-2-(N-(2-(1H-imidazol-1-yl)acetyl)carbamimidoyl)-7-oxo-1,6-diazabicyclo[3.2.1]octan-6-yl Sulfate]
> 64 µg/mL: [1]; [10] | E. coli 8739 (strain 2); [10] | [2]; [10] | [3]; [10] | [4]; [10] | [5]; [10] | [6]; [10] | [7]; [10] | [8]; [10] | [9]; [10]

N=C(NC(=O)CCc1ccccn1)[C@@H]1CC[C@@H]2CN1C(=O)N2OS(=O)(=O)[O-].[Na+] [Ex.13, Sodium (2S,5R)-7-oxo-2-(N-(3-(pyridin-2-yl)propanoyl)carbamimidoyl)-1,6-diazabicyclo[3.2.1]octan-6-yl Sulfate]
> 64 µg/mL: [1]; [10] | E. coli 8739 (strain 2); [10] | [2]; [10] | [3]; [10] | [4]; [10] | [5]; [10] | [6]; [10] | [7]; [10] | [8]; [10] | [9]; [10]

CN1CC[C@H](C(=O)NC(=N)[C@@H]2CC[C@@H]3CN2C(=O)N3OS(=O)(=O)[O-])C1.[Na+] [Ex.32, Sodium (2S,5R)-2-(N-((S)-1-methylpyrrolidine-3-carbonyl)carbamimidoyl)-7-oxo-1,6-diazabicyclo[3.2.1]octan-6-yl Sulfate]
> 64 µg/mL: [1]; [10] | E. coli 8739 (strain 2); [10] | [2]; [10] | [3]; [10] | [4]; [10] | [5]; [10] | [6]; [10] | [7]; [10] | [8]; [10] | [9]; [10]

CN1CCC(C(=O)NC(=N)[C@@H]2CC[C@@H]3CN2C(=O)N3OS(=O)(=O)[O-])CC1.[Na+] [Ex.41, Sodium (2S,5R)-2-(N-(1-methylpiperidine-4-carbonyl)carbamimidoyl)-7-oxo-1,6-diazabicyclo[3.2.1]octan-6-yl Sulfate]
> 64 µg/mL: [1]; [10] | E. coli 8739 (strain 2); [10] | [2]; [10] | [3]; [10] | [4]; [10] | [5]; [10] | [6]; [10] | [7]; [10] | [8]; [10] | [9]; [10]

CC(=O)N1CC[C@@H](C(=O)NC(=N)[C@@H]2CC[C@@H]3CN2C(=O)N3OS(=O)(=O)O)C1 [Ex.31, Sodium (2S,5R)-2-(N-((R)-1-acetylpyrrolidine-3-carbonyl)carbamimidoyl)-7-oxo-1,6-diazabicyclo[3.2.1]octan-6-yl Sulfate]
> 64 µg/mL: [1]; [10] | E. coli 8739 (strain 2); [10] | [2]; [10] | [3]; [10] | [4]; [10] | [5]; [10] | [6]; [10] | [7]; [10] | [8]; [10] | [9]; [10]

CC(=O)NC1CCC(C(=O)NC(=N)[C@@H]2CC[C@@H]3CN2C(=O)N3OS(=O)(=O)[O-])CC1.[Na+] (stereo partly drawn) [Ex.40, Sodium (2S,5R)-2-(N-(4-acetamidocyclohexane-1-carbonyl)carbamimidoyl)-7-oxo-1,6-diazabicyclo[3.2.1]octan-6-yl Sulfate]
> 64 µg/mL: [1]; [10] | E. coli 8739 (strain 2); [10] | [2]; [10] | [3]; [10] | [4]; [10] | [5]; [10] | [6]; [10] | [7]; [10] | [8]; [10] | [9]; [10]

N=C(N)NCCC(=O)NC(=N)[C@@H]1CC[C@@H]2CN1C(=O)N2OS(=O)(=O)O [Ex.51, (2S,5R)-2-(N-(3-guanidinopropanoyl)carbamimidoyl)-7-oxo-1,6-diazabicyclo[3.2.1]octan-6-yl Hydrogen Sulfate]
> 64 µg/mL: [1]; read-out: MIC | E. coli 8739 (strain 2); read-out: MIC | [2]; read-out: MIC | [3]; read-out: MIC | [4]; read-out: MIC | [5]; read-out: MIC | [6]; read-out: MIC | [7]; read-out: MIC | [8]; read-out: MIC | [9]; read-out: MIC

N=C(NC(=O)CC1CCCCC1)[C@@H]1CC[C@@H]2CN1C(=O)N2OS(=O)(=O)[O-].[Na+] [Ex.36, Sodium (2S,5R)-2-(N-(2-cyclohexylacetyl)carbamimidoyl)-7-oxo-1,6-diazabicyclo[3.2.1]octan-6-yl Sulfate]
> 64 µg/mL: [1]; [10] | E. coli 8739 (strain 2); [10] | [2]; [10] | [3]; [10] | [4]; [10] | [5]; [10] | [6]; [10] | [7]; [10] | [8]; [10] | [9]; [10]

From US20230365561A1, “BETA-LACTAMASE INHIBITORS AND THEIR PREPARATION” (NINGXIA ACADEMY OF AGRICUL TURE AND FORESTRY SCIENCES, priority 2020, published 2023)
